Results as given in ChEMBL document CHEMBL1201862, “PubChem BioAssay data set” (2004).
The source made the active and inactive calls.

Assays:
NADPH oxidase 1 = molecular target: T1, NADPH oxidase 1 (Homo sapiens, UniProt Q9Y5S8); assay type: functional, cell-based;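 note: Cell-based assay with luminescence read-out, IC50 derived from inhibitor dose-response curves; intracellular ROS from endogenous NOX1 in intact HT29 colon cancer cells; potency of inhibitors that lower the ROS luminescence signal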
T1 sequence (Q9Y5S8 whole entry): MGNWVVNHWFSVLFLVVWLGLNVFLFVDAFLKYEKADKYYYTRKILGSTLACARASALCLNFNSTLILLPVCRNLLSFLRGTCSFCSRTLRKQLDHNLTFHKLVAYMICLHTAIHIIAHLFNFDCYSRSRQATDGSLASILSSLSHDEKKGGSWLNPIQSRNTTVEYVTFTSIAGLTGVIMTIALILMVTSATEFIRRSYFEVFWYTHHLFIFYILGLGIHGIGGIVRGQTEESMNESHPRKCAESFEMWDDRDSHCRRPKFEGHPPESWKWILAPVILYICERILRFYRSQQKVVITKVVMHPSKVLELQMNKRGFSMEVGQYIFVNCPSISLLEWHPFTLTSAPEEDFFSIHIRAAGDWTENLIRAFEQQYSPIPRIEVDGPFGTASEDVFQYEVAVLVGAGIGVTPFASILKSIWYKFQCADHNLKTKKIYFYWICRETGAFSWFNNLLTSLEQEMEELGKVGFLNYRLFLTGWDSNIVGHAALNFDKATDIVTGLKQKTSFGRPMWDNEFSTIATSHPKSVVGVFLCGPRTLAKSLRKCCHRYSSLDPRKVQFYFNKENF

[1] = A Cell Based Secondary Assay To Explore Cytotoxicity of Compounds that Sensitize Mycobacterium Tuberculosis to Beta-Lactam Antibiotics.; assay type: functional
[2] = growth suppression of PTEN-null colon cells, dose response, cell-based, HCT116 PTEN knockout (AID 1047); assay type: functional;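 note: HCT116 colon tumor cells with PTEN knocked out; cells exposed to compound for 60 hours before readout; potency for loss of cell viability measured by luminescence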
[3] = growth suppression of beta-catenin-knockout colon cells, dose response, cell-based, HCT116, human colon tumor (AID 1045); assay type: functional;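 note: HCT116 colon tumor cells with beta catenin knocked out; cells exposed to compound for 60 hours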
[4] = cytotoxicity in HPDE-C7 cells, cell-based, fluorescence, HTS (AID 430); assay type: functional; details: Homo sapiens
[5] = cytotoxicity in KRAS-transformed pancreatic duct cells, primary screen, cell-based, fluorescence, HTS (AID 431); assay type: functional; details: Homo sapiens;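 note: cell line used: HPDE-C7K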
[6] = molecular target: Long-chain-fatty-acid--AMP ligase FadD28 (Mycobacterium tuberculosis, UniProt P9WQ59); assay: Fluorescence polarization aasay to screen for inhibitors that compete for the binding of FadD28 to a bisubstrate Measured in Biochemical System Using Plate Reader - 2147-01_Inhibitor_Dose_CherryPick_Activity.; assay type: functional, Mycobacterium tuberculosis H37Rv
Sequence of Long-chain-fatty-acid--AMP ligase FadD28 (P9WQ59 whole entry): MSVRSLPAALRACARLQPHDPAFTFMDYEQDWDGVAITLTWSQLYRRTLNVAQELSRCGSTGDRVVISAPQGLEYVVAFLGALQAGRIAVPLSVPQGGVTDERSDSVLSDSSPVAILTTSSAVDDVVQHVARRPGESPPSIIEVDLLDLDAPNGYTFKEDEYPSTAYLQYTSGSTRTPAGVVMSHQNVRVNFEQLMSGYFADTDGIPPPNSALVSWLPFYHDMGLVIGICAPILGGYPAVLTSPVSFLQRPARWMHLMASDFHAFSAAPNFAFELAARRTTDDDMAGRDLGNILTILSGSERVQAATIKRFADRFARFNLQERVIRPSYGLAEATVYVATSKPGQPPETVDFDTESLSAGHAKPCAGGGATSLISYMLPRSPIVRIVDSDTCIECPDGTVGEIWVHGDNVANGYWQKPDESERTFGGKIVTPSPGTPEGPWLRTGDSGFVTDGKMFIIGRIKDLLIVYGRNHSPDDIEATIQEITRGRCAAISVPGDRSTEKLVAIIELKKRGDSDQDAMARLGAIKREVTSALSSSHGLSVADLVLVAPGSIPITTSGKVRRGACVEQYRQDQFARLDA

[7] = inhibitors of intracellular T. cruzi replication, confirmation, NIH3T3 host cells, beta-gal luminescence (AID 2044); assay type: functional, cell-based;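 note: intracellular parasites grown in NIH/3T3 mouse fibroblasts as host cells; luminescent beta-galactosidase reporter signal from transgenic T. cruzi replicating inside host cells; inhibitors lower the luminescence signal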
[8] = molecular target: T2, DNA repair protein RAD52 homolog (Homo sapiens, UniProt P43351); assay type: functional, biochemical
T2 sequence (P43351 whole entry): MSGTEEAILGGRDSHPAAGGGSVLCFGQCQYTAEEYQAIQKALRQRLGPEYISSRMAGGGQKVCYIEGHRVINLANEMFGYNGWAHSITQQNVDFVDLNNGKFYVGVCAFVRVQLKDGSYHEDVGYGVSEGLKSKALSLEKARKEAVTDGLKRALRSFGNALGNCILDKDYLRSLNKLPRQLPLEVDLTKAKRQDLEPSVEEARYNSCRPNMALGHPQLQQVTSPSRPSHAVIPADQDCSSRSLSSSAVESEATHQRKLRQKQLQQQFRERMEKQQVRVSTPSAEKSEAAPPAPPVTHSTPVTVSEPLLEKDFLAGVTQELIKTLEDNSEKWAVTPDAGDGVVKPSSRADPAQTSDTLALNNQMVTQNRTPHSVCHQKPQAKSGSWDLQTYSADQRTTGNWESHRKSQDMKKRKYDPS

[9] = cytotoxicity toward NIH3T3 fibroblasts, dose response, counter-screen, cell-based, ATP luminescence, mouse fibroblasts (AID 2010); assay type: functional;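 note: cells exposed to compound for about 90 hours before reading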
[10] = molecular target: Epstein-Barr nuclear antigen 1 (Epstein-Barr virus (strain B95-8) (HHV-4) (Human herpesvirus 4), UniProt P03211); assay: EBNA-1 inhibitors, dose response, biochemical, fluorescence polarization, 1536-well (AID 2381); parameters: species or system human gammaherpesvirus 4;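 note: fluorescence polarization of a Cy5 DNA probe bound by EBNA-1 protein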
Sequence of Epstein-Barr nuclear antigen 1 (P03211 whole entry): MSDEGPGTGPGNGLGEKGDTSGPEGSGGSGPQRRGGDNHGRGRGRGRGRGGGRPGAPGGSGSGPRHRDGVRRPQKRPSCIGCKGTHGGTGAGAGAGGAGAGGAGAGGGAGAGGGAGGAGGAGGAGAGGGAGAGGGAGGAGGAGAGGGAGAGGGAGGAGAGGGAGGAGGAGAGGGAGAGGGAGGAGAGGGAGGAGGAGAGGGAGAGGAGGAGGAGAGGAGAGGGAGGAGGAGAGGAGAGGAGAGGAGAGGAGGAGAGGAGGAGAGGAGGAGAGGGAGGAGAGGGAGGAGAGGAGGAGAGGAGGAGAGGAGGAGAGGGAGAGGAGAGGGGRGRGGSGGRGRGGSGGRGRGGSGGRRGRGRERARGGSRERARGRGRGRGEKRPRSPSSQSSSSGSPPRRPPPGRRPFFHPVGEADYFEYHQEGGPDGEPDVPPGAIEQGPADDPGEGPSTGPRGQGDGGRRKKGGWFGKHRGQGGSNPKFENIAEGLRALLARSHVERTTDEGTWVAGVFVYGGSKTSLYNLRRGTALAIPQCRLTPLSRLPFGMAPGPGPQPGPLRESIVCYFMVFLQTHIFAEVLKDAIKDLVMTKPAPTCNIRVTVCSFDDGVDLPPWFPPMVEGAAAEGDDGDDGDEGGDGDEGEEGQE

[11] = molecular target: Lytic switch protein BZLF1 (Epstein-Barr virus (strain B95-8) (HHV-4) (Human herpesvirus 4), UniProt P03206); assay: EBV ZTA inhibitors, dose response, counter-screen for EBNA-1 inhibitor project, biochemical, fluorescence polarization, Epstein-Barr virus, 1536-well (AID 2377); parameters: species or system human gammaherpesvirus 4;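 note: fluorescence polarization of Cy5-labelled ZRE DNA probe bound by purified Zta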
Sequence of Lytic switch protein BZLF1 (P03206 whole entry): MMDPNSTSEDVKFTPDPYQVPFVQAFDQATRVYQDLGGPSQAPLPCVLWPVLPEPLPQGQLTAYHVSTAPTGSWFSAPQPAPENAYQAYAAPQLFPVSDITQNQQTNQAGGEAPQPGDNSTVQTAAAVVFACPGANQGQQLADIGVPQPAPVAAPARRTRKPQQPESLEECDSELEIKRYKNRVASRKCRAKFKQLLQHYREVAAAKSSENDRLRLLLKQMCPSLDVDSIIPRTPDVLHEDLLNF

Estrogen receptor = molecular target: T3, Estrogen receptor (Homo sapiens, UniProt P03372);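 note: potency for inhibiting coactivator peptide recruitment to the receptor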
T3 sequence (P03372 whole entry): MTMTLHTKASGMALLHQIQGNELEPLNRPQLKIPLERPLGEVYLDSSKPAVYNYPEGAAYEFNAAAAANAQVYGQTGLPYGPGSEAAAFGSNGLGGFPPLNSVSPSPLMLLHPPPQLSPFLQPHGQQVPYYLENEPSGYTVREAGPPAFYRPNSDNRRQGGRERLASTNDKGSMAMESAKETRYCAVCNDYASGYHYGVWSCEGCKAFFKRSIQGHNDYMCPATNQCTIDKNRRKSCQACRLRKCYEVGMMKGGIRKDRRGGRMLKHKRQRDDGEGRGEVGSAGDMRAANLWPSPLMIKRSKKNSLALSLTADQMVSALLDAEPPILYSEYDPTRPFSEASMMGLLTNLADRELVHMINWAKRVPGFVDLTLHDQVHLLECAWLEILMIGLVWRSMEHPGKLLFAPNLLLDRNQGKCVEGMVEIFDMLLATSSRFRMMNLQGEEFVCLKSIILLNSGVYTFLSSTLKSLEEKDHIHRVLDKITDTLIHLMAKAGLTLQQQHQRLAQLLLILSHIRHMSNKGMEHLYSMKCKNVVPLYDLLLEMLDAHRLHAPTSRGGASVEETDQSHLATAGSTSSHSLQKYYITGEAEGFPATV

[12] = inhibitors of SNCA 5'UTR-driven reporter translation, confirmation, H4 neuroglioma cells, luminescence (AID 1988); assay type: functional, cell-based
[13] = molecular target: T4, Mannose-6-phosphate isomerase (Homo sapiens, UniProt P34949); assay: inhibitors of human PMI, primary screen, biochemical, fluorescence intensity, coupled assay (AID 1209)
T4 sequence (P34949 whole entry): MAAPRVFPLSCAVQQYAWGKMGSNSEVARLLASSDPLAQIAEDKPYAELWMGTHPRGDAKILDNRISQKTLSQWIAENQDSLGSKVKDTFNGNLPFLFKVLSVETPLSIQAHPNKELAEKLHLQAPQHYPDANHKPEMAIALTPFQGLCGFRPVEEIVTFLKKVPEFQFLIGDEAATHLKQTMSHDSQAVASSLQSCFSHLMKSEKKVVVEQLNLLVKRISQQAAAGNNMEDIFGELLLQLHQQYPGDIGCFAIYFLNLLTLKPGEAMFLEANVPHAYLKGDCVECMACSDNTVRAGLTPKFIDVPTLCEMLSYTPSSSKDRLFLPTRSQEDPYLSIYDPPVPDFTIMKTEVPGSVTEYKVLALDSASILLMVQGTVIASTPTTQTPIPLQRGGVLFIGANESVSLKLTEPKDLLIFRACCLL

[14] = molecular target: T4, Mannose-6-phosphate isomerase; assay: human PMI inhibitors, high substrate, primary screen, biochemical, fluorescence intensity, high mannose 6-phosphate (AID 1220)
[15] = inhibitors of firefly luciferase expression or activity, dose response, H4 neuroglioma cells, luminescence (AID 1990); assay type: functional, cell-based
[16] = Luminescence Cell-Based Dose Response HTS to Identify Inhibitors of 5'UTR Stem-Loop Driven Prion Protein mRNA Translation in H4 Neuroglioblastoma Cells. [Related pubchem assays: 1827 (Project Summary), 1813 (Primary HTS)]; assay type: functional
Ion channel NompC = Ion channel NompC (Danio rerio, UniProt Q7T1G6); assay: Fluorescence counterscreen assay for TRPML3 agonists: dose response cell-based high-throughput screening assay to identify agonists of the transient receptor potential channel N1 (TRPN1). [Related pubchem assays: 1526, 1424, 1448 ]; assay type: functional
Sequence of Ion channel NompC (Q7T1G6 whole entry): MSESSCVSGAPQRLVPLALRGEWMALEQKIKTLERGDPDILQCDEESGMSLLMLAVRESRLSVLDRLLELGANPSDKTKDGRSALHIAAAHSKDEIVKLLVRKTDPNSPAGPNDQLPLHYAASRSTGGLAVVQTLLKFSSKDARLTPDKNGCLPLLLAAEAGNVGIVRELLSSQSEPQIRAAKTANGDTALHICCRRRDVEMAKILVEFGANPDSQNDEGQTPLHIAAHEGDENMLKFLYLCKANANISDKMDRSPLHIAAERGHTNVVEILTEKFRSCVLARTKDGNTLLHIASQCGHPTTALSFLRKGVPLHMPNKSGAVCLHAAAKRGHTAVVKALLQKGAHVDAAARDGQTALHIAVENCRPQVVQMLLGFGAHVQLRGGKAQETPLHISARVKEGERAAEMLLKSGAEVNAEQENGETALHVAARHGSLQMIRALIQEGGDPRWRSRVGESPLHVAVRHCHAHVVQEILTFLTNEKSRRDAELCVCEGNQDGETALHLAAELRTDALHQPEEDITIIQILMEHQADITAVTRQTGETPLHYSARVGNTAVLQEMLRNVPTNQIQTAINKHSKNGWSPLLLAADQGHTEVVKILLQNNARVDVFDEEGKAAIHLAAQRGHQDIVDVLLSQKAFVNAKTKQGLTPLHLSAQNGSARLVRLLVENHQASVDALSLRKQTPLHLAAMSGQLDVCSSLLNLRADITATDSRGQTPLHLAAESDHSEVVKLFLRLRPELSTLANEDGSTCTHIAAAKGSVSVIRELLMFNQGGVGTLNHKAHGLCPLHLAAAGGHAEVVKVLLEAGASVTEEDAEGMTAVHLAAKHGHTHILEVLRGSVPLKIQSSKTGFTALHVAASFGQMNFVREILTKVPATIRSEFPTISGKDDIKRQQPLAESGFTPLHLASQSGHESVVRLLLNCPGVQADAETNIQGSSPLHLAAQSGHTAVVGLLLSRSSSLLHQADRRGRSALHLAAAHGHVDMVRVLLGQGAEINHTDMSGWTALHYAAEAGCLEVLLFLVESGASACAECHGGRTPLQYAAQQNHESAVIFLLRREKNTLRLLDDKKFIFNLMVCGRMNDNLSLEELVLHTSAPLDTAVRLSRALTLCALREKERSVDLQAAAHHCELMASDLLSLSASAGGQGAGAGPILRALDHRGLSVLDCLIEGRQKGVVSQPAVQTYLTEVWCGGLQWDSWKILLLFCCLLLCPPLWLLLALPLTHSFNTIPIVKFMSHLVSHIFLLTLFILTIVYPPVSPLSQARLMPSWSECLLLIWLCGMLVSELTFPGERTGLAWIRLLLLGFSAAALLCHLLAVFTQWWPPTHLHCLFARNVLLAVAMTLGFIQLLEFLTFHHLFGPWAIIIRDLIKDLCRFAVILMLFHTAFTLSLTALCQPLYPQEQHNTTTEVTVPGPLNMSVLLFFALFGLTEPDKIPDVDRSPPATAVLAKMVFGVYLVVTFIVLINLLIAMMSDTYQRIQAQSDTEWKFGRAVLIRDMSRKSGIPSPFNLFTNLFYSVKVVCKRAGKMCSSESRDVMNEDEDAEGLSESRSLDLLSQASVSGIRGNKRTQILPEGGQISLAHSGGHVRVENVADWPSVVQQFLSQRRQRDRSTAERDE

Mucolipin-3 = Mucolipin-3 (Homo sapiens, UniProt Q8TDD5); assay: Dose response cell-based high-throughput screening assay for agonists of the transient receptor potential channel ML3 (TRPML3). [Related pubchem assays: 1526, 1424, 1448 ]; assay type: functional
Sequence of Mucolipin-3 (Q8TDD5 whole entry): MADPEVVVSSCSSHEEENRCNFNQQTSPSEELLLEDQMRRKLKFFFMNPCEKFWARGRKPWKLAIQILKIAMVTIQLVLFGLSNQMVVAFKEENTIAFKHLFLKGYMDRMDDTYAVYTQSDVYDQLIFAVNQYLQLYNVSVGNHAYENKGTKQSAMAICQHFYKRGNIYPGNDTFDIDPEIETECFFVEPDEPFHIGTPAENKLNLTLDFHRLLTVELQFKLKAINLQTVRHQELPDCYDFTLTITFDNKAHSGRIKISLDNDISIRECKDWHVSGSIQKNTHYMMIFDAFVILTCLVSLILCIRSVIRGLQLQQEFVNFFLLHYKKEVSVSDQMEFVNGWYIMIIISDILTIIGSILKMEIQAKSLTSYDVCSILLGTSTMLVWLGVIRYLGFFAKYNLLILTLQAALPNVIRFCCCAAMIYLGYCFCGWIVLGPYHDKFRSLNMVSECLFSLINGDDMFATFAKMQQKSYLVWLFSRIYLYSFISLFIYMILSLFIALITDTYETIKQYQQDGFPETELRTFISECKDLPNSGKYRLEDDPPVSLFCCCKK

[17] = Luminescence Cell-Based Dose Retest to Confirm Inhibitors of Cancer Stem Cells. [Related pubchem assays (depositor defined):AID2717, AID2721]; assay type: functional; details: Homo sapiens
Bcl-2-related protein A1 = molecular target: T5, Bcl-2-related protein A1 (Mus musculus, UniProt Q07440); assay type: functional;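 note: confirmatory dose–response counterscreen on Bfl-1, used to check hits from a UBC13 polyubiquitin inhibitor campaign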
T5 sequence (Q07440 whole entry): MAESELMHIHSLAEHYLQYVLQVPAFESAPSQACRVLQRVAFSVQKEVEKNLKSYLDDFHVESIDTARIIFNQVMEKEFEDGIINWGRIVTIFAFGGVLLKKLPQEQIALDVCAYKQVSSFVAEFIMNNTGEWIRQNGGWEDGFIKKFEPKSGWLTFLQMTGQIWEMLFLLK

[18] = molecular target: T6, Ubiquitin-conjugating enzyme E2 N (Homo sapiens, UniProt P61088); assay type: functional
T6 sequence (P61088 whole entry): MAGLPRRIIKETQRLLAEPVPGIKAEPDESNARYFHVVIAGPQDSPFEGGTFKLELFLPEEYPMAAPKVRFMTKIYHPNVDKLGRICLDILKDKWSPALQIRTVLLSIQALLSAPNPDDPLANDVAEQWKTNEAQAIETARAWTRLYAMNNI

[19] = molecular target: T6, Ubiquitin-conjugating enzyme E2 N; assay type: functional; remark: listed apart in the source

SMILES: S=C(CCC(=S)Nc1ccc(Cl)cc1)Nc1ccc(Cl)cc1
- IC50 (NADPH oxidase 1): > 17 µM (not active)

SMILES: Cc1cc(C)cc(NC(=O)c2cc(Cl)sc2Cl)c1
- CC50 [1]: > 20 µM (active)

SMILES: O=C(Oc1ccc(-c2nnco2)cc1)c1sc2ccccc2c1Cl
- IC50 (NADPH oxidase 1): > 17 µM (not active)

SMILES: CCOC(=O)c1sc(NC(=O)CN2CCCC2)c(C(=O)OCC)c1C
- CC50 [1]: > 40 µM (active)

SMILES: CCCCCCCCNC(C)C(O)c1ccc(SC(C)C)cc1 (configuration not stated)
- EC50 [2]: 15.2 µM (active)
- EC50 [3]: 11.3 µM (active)
- EC50 [4]: > 20 µM (not active)
- EC50 [5]: > 20 µM (not active)
- AC50 [6]: 64.1 µM (active)

SMILES: CN(C)CCCN(C(=O)c1ccco1)c1nc2cc3c(cc2s1)OCO3
- EC50 [7]: < 0.1 µM (active)
- AC50 [8]: 25.2 µM (active)
- EC50 (cells): 0.213 µM (active)
- EC50 [9]: > 60 µM (not active)

SMILES: O=C(Cn1cnc2ccccc2c1=O)Nc1nc2ccccc2s1
- IC50 [10]: 51.4 µM (not active)
- IC50 [11]: > 111 µM (not active)

SMILES: COc1ccc(-n2c(SCC(=O)Nc3nccs3)nc3sc4c(c3c2=O)CCN(C)C4)cc1
- IC50 (Estrogen receptor): 8.48 µM (active)

SMILES: Cc1ccccc1NCc1ccc(O)c2ncccc12
- EC50 [12]: 10.4 µM (active)
- IC50 [13]: 12.5 µM (active)
- IC50 [14]: 11.5 µM (active)
- EC50 [15]: 11.2 µM (active)
- EC50 [16]: > 120 µM (not active)

SMILES: O=Cc1cn(-c2ccccc2)nc1-c1cc2c(ccc3ccccc32)oc1=O
- IC50 (Estrogen receptor): 19.6 µM (active)

SMILES: COc1ccc(NC(S)=NN=C(S)Nc2cccc(C(F)(F)F)c2)cc1
- IC50 [10]: 6.7 µM (active)
- IC50 [11]: > 111 µM (not active)

SMILES: COC(=O)CN(c1cc(Cl)ccc1OC)S(=O)(=O)c1ccc(C)cc1
- EC50 (Ion channel NompC): > 29.9 µM (not active)
- EC50 (Mucolipin-3): 3.49 µM (active)

SMILES: OCCN1CCN(CCCN2c3ccccc3Sc3ccc(C(F)(F)F)cc32)CC1
- EC50 [2]: 8.4 µM (active)
- EC50 [3]: 8.41 µM (active)
- AC50 [17]: 4.16 µM (active)
- IC50 (Bcl-2-related protein A1): > 20 µM (inactive)
- IC50 [18]: 17.3 µM (active)
- IC50 [19]: 17.5 µM (active)
- EC50 [4]: 13.2 µM (active)
- AC50 [8]: 12.7 µM (active)
- EC50 [5]: 9.66 µM (active)

SMILES: Cc1cc(S(=O)(=O)N2CCCCCC2)c(Cl)cc1Cl
- EC50 (Ion channel NompC): > 29.9 µM (not active)
- EC50 (Mucolipin-3): > 29.9 µM (not active)
